ChEMBL document CHEMBL1201862, “PubChem BioAssay data set” (2004)
Active and inactive are the calls of the source. Rule as the data show it, for most assays here: actives have a measured EC50 and inactives only a lower limit.

Legend:
[1] = Luminescence Cell-Based Dose Response HTS to Identify Inhibitors of 5'UTR Stem-Loop Driven Prion Protein mRNA Translation in H4 Neuroglioblastoma Cells. [Related pubchem assays: 1827 (Project Summary), 1813 (Primary HTS)]; assay type: functional
[2] = molecular target: T1, Heat shock factor protein 1 (Mus musculus, UniProt P38532); experiment: inhibition of MG132-induced HSE-luciferase signal, confirmation, cell-based, NIH3T3, luminescence, dose retest (AID 2382); assay type: functional;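 also: NIH3T3 fibroblasts with HSF1-driven luciferase reporter stressed by proteasome inhibitor MG132; luminescence from HSF1-driven luciferase expression after 8 hours of MG132 stress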
T1 sequence (P38532 whole entry): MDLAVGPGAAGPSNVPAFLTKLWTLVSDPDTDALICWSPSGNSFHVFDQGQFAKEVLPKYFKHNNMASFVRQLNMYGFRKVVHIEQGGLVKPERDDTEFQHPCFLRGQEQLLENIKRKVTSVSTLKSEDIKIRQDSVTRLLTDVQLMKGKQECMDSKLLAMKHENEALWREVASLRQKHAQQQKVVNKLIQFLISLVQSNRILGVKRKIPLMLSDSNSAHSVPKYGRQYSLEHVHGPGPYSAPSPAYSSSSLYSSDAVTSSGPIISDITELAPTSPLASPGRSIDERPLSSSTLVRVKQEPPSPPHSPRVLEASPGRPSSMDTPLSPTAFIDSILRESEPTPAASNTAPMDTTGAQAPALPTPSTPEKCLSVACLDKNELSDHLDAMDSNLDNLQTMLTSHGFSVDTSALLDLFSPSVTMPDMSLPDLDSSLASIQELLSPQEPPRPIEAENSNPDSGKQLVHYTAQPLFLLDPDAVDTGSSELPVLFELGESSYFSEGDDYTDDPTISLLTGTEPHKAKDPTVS

[3] = molecular target: T2, Sphingosine 1-phosphate receptor 4 (Homo sapiens, UniProt O95977); experiment: Fluorescence dose response cell-based high throughput screening assay for antagonists of the Sphingosine 1-Phosphate Receptor 4 (S1P4). [Related pubchem assays: 1524 (Confirmation in triplicates.), 1510 (Primary screen.)]; assay type: functional
T2 sequence (O95977 whole entry): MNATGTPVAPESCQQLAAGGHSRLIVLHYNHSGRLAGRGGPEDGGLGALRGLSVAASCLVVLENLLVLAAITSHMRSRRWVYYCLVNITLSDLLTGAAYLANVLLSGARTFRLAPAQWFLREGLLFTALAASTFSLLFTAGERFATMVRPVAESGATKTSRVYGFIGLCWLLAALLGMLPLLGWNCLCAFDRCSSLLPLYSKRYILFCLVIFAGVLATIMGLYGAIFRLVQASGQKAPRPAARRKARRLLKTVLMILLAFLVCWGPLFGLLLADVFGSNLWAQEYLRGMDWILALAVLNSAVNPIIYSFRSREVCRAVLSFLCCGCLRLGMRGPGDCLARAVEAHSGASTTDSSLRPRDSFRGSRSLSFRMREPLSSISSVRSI

[4] = molecular target: Kappa-type opioid receptor (Homo sapiens, UniProt P41145); assay type: functional
Sequence of Kappa-type opioid receptor (P41145 whole entry): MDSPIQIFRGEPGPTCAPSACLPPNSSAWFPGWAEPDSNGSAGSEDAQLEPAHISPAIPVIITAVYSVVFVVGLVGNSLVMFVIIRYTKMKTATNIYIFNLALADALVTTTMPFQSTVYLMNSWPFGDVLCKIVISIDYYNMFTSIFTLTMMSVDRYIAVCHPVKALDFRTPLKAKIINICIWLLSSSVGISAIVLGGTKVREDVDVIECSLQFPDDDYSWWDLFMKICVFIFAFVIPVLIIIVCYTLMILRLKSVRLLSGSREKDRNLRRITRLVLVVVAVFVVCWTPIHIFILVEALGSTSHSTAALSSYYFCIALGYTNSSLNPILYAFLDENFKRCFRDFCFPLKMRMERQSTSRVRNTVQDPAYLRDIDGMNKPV

Streptococcus = experiment: Group A Streptococcus viability loss, dose response, counter-screen for streptokinase expression inhibitor project, luminescence, BacTiterGlo (AID 1915); assay type: functional, organism-based;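 also: potency for reduction of bacterial viability or growth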
cells = assay type: functional, cell-based
[5] = NIH-3T3 fibroblast cytotoxicity, dose response, cytotoxicity control, cell-based, fluorescence, Alamar Blue, secondary assay (AID 2327); assay type: functional;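 also: NIH-3T3 mouse fibroblasts cultured with fluconazole at 8 µg/mL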
[6] = molecular target: T3, Sentrin-specific protease 7 (Homo sapiens, UniProt Q9BQF6); experiment: SENP7 protease inhibitors, SAR follow-up, biochemical, luminescence (AID 504497); assay type: functional
T3 sequence (Q9BQF6 whole entry): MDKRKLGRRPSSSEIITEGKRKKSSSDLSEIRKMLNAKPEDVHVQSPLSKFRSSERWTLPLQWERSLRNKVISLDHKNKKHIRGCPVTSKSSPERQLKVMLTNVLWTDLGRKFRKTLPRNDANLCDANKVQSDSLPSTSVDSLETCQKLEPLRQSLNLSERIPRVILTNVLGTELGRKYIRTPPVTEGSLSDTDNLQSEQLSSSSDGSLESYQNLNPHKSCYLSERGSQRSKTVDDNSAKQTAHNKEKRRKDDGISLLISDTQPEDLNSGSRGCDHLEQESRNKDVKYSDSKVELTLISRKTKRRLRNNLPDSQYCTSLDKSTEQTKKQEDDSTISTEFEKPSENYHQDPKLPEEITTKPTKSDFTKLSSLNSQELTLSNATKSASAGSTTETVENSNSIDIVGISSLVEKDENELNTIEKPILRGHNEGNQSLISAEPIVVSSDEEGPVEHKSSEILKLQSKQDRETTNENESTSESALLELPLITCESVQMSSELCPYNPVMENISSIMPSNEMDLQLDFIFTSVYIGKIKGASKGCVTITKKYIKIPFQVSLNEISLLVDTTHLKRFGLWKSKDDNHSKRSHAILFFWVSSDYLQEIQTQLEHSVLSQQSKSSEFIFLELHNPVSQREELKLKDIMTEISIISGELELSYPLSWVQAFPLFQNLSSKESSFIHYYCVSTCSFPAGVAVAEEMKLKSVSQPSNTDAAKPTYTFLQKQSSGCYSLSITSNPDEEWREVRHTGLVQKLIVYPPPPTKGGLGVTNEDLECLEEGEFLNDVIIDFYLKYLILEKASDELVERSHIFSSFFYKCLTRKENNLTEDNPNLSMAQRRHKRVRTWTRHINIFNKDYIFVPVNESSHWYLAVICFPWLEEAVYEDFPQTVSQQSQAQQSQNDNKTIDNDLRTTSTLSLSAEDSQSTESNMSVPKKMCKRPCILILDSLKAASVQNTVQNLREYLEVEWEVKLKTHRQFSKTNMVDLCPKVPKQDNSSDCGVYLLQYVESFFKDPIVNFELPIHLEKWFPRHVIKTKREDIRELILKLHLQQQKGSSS

[7] = molecular target: Serine/threonine-protein phosphatase PP1-alpha catalytic subunit (Homo sapiens, UniProt P62136); experiment: PP1 phosphatase inhibitors, dose response, biochemical, fluorescence (AID 2394)
Sequence of Serine/threonine-protein phosphatase PP1-alpha catalytic subunit (P62136 whole entry): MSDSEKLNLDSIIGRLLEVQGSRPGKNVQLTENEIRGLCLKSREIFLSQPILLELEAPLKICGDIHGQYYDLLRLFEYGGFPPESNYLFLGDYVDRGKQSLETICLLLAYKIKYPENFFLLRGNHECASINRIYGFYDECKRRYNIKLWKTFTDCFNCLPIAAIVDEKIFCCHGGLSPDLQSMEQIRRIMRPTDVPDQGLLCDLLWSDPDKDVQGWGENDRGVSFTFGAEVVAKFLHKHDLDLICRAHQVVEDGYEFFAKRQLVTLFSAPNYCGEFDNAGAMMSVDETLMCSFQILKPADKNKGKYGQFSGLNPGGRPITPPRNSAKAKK

## COc1cc(NC(=O)Cn2ncc(Cl)c(Cl)c2=O)c(C)cc1[N+](=O)[O-]
[1]
  EC50: 9.83 µM (active)
[2]
  EC50: 4.33 µM (active)
[3]
  IC50: 1.32 µM (active)
[4]
  IC50: 13.9 µM

## Cc1ccc(C)c(S(=O)(=O)N2CCN(Cc3ccc(O)c4ncccc34)CC2)c1
Streptococcus
  EC50: 15 µM (active)
cells
  EC50: 7.58 µM (active)
[5]
  EC50: 81.5 µM (active)

## Oc1ccc(/C=N\Nc2cc(N3CCOCC3)nc(N3CCOCC3)n2)c(O)c1
[6]
  IC50: 78 µM (active)
[7]
  IC50: > 67 µM (not active)
